# Results as given in patent US20240350456A1, “COMPOSITIONS AND METHODS FOR DIAGNOSING AND TREATING INFLAMMATORY CONDITIONS” (RUTGERS, THE STATE UNIVERSITY OF NEW JERSEY, priority 2023, published 2024).
# Tests used:
# [1] = tested on: human-derived Caco-2 cells; assay: In vitro transwell screening in Caco-2 cells, barrier disrupted by Clostridium difficile toxin (TEER and FITC-dextran permeability); assay type: cell-based; details: for TEER, indole metabolites (FIG. 22A): applied to the lumen, TOX; for integrated TEER (area under the curve, FIG. 21B): luminal, C. difficile toxin
# Excerpt: FIG. 20A-20B. In vitro screening of metabolites effective against leaky gut. FIG. 20A, Diagram of the in vitro transwell method used to evaluate efficacy of metabolites in protecting the leaky gut in human-derived Caco-2 cells. The luminal compartment represents the food side, and the basolateral the blood side. FIG. 20B, Transepithelial electrical resistance (TEER) measurements, and FITC-dextran measurements, evaluate the leakiness of the tight junction that regulates the pore (top) and leak (bottom) pathways of the gut. Ions (red), small molecules (blue), FITC-dextran (orange).
# FIG. 21A-21D. Efficacy of tryptophan and vitamin B3 metabolites in protecting the gut barrier in vitro. FIG. 21A, TEER measurements of metabolites placed on luminal side of transwells for 72 hours. After 48 hours, the barrier was disrupted by the toxin of clostrium difficile (Cdiff). FIG. 21B, Integrated results of area under the curve using data from FIG. 21A. FIG. 21C, FITC-dextran permeability analysis of metabolites applied luminally. FIG. 21D, FITC-dextran permeability analysis of metabolites applied basolaterally.
# FIG. 22A-22B. Efficacy of microbiota-derived indole metabolites in protecting the gut barrier. FIG. 22A, Integrated results of TEER measurements of metabolites placed on luminal side of transwells for 72 hours. After 48 hours, the barrier was disrupted by the toxin of clostrium difficile (Cdiff) FIG. 22B, FITC-dextran permeability analysis of metabolites from FIG. 22A applied luminally.
# To perform in vitro screening of the metabolites effective against leaky gut, an in vitro transwell method was used. (FIG. 20A) The efficacy of these metabolites in protecting the leaky gut was analyzed in human-derived Caco-2 cells. Transepithelial electrical resistance (TEER) measurements evaluates the leakiness of the tight junction that regulates the pore (FIG. 20B, top) and leak (FIG. 20B, bottom) pathways of the gut. The higher the TEER, the less permeable the junction is to the movement of ions and small molecules. FITC-dextran is a large polysaccharide with a fluorescent moiety, typically used as a probe to assess the leakiness of the tight junction to large molecules like dextran. The faster the movement of FITC-dextran from lumen to blood, the greater the permeability.
# (FIG. 21A) There was no effect of these metabolites on TEER when applied by themselves. After 48 h, the barrier was disrupted by the toxin of a common “bad” bacteria Clostridium difficile (Cdiff). TEER plummeted with this toxin (TOX, red line) compared to control (Veh, blue line). […] (FIG. 21A)
# [2] = tested on: Tff3 and Lyz1 (goblet and Paneth cells); assay: Organoids: goblet and Paneth cell transcripts (Tff3, Lyz1) and cell numbers; assay type: cell-based, mouse; details: enteroids
# Protocol: (§1) We had 2 series of metabolite-treated organoid experiments, i.e., 1) organoid from conventional C57BL6 mice and 2) Ocln KO and littermate WT control as a gift from Prof. Jerrold Turner (Harvard University). […] Seeding is designated as day 0. On day 3 of culture, the existing media in the wells were completely removed before adding treatments. LPS (1 μg/mL) with or without metabolites, i.e., IPA (0.1 mM) (Li et al., 2021), IAM (200 μM) (Vyhlidalova et al., 2020), MNA (12 ng/ml) (Liu et al., 2015), CARN (20 mM) (Boldyrev et al., 2013) or ASA (1 μM) (Erez et al., 2011) were each added in CCM at known physiological concentrations, incubated for 48 hours, thereafter, organoid was harvested for RNA extraction, and paraformaldehyde fixation for immunostaining.
# (§2) Total RNA was extracted from the intestinal organoids using a commercially available kit (RNeasy Microkit; Qiagen, MD, Cat. #74004) following manufacturer's instructions. mRNA samples were converted to cDNA using Bio-Rad's iScript Reverse Transcription Supermix for RT-qPCR (Bio-Rad Laboratories, Hercules, CA, Cat. #1708840). cDNA was then used for RT-qPCR (Mx3000P. Stratagene, La Jolla, CA) to analyze several genes using Maxima SYBR Green qPCR Master Mix (Thermo Fisher Scientific, Waltham, MA) and primers (Integrated DNA Technologies, Coralville, IA). Thermal profile for three-step cycling was 10 min at 95° C. for initial denaturation; then 40 cycles of 15 sec at 95° C. for denaturation, 30 sec at 65° C. for annealing, and 30 sec at 75° C. for extension. Primers used are as follows: β-actin (Actb), forward 5′-[…]-3′ (SEQ ID NO: 5), reverse 5′-[…]-3′ (SEQ ID NO: 6); ZO-1 (Tjp1), forward 5′-[…]-3′ (SEQ ID NO: 7), reverse 5′-[…]-3′ (SEQ ID NO: 8), Ocln, forward 5′-[…]-3′ (SEQ ID NO: 9), reverse 5′-[…]-3′ (SEQ ID NO: 10); Lyz1, forward 5′-ATGGCTACCGTGGTGTCAAG-3′ (SEQ ID NO: 11), reverse 5′-CGGTCTCCACGGTTGTAGTT-3′ (SEQ ID NO: 12); Tff3, forward 5′-TAATGCTGTTGGTGGTCCTG-3′ (SEQ ID NO: 13), reverse 5′-CAGCCACGGTTGTTACACTG-3′ (SEQ ID NO: 14). All samples were normalized to β actin expression. Gene expression levels are depicted as fold change relative to the control group.
# (§3) Immunocytochemistry followed earlier work (Pearce et al., 2018). Briefly, organoids were extracted from Matrigel by using cell recovery solution (Corning, Cat. No. 354253), processed then fixed in 4% paraformaldehyde for 15 min and dehydrated with 70% ethanol and kept in 4° C. until embedded in paraffin. On the day of embedding, organoids were gently spun down to a pellet (250 g for 5 min), then the supernatant was removed, the pellet resuspended in agarose and embedded in paraffin. […]
# ZO-1 (Tjp1) and Ocln = assay: Intestinal organoids treated with LPS and metabolites: tight junction (TJ) expression, RT-qPCR and immunostaining; assay type: cell-based, mouse
# Protocol: Intestinal organoids were isolated as previously described (Das et al., 2015; Pearce et al., 2018). Briefly, crypts were isolated from small intestine of conventional house C57BL/6 male mice (Taconic Laboratories, Hudson, NY) by shaking in isolation buffer (2 mM EDTA in PBS), then, crypts were harvested, processed, and suspended in crypt culture medium (CCM), which consisted of advanced DMEM/F12 (Life Technologies, Carlsbad, CA) supplemented with serum-free B27 (1:50; Life Technologies), N2 (1:100; Life Technologies), N-acetylcysteine (1 mM; Sigma-Aldrich, St. Louis, MO), recombinant murine epithelial growth factor (EGF, 50 ng/ml; Peprotech, Rocky Hill, NJ), Noggin (100 ng/ml; Peprotech), R-Spondin (500 ng/ml; Peprotech), Glutamax-I supplement (1:100; Life Technologies), penicillin/streptomycin (500 μg/ml; Life Technologies), and HEPES ([…]; Life Technologies). Crypts were resuspended in 70% Matrigel (density ˜450 crypts per dome, 2 domes per well in 24-well plate) and allowed to solidify at 37° C. for 20 min. CCM (1.5 mL) was then added to each well. Cultures were incubated in a humidified incubator at 37° C., and CCM was changed daily. Intestinal organoid treatment with LPS and metabolites
# as §1, §2, §3
SMILES,"TEER, indole metabolites (FIG. 22A) [1]","integrated TEER (area under the curve, FIG. 21B) [1]",further results
"O=C(O)C(O)Cc1c[nH]c2ccccc12 (stereo not shown) [Indolelactic.acid, indole-3-lactic acid]",clearly protective against TOX-induced decreases in TEER,–,–
N#CCc1c[nH]c2ccccc12 [Indole-3-acetonitrile],clearly protective against TOX-induced decreases in TEER,–,–
"O=C(O)c1c[nH]c2ccccc12 [Indole-3-carboxylic.acid, indole-3-carboxylic acid]",clearly protective against TOX-induced decreases in TEER,–,–
"O=C(O)CCc1c[nH]c2ccccc12 [Indole-3-propionic.acid, indole-3-propionic acid]",clearly protective against TOX-induced decreases in TEER,–,"goblet and Paneth cell transcripts and cell numbers [2]: reduced goblet and Paneth cell transcripts as well as cell numbers; gene expression of Ocln (ZO-1 (Tjp1) and Ocln; ex vivo, in the presence of the barrier disruptor): increased gene expression of Ocln; TJ expression at the protein and mRNA levels (ZO-1 (Tjp1) and Ocln; in the presence of LPS (1 μg/mL), 48 hr): increased TJ expression"
"NC(=O)c1cccnc1 [NAM, nicotinamide]",–,protected the cells from barrier disruption by TOX,–
NC(=O)c1ccc[n+]([C@@H]2O[C@H](COP(=O)([O-])OP(=O)(O)OC[C@H]3O[C@@H](n4cnc5c(N)ncnc54)[C@H](O)[C@@H]3O)[C@@H](O)[C@H]2O)c1 [NAD],–,protected the cells from barrier disruption by TOX,–
"NC(=O)c1ccc[n+]([C@@H]2O[C@H](CO)[C@@H](O)[C@H]2O)c1 [Nicotinamide.riboside, nicotinamide riboside]",–,protected the cells from barrier disruption by TOX,–
